Source: patent US20060040872A1, “Calcium channel inhibitor” (SENMI EKISU CO., LTD, priority 2004, published 2006)
Where a SMILES comes first, the peptide text is derived from it.

Experiments:
Format in all cases: cell-based
[1] = test system: normal human aortic vessel smooth muscle cells (VSMC); assay: Influence of VY on Ang II receptor: VSMC growth with Ang II and saralasin (WST-8); details: 48 hours, FIG. 17
Experimental: (§1) As to cells, normal human aortic vessel smooth muscle cells (VSMC; Cyro AOSMC (trade name) manufactured by Sanko Junyaku Co.) were used while, as to VY, valyl-tyrosine which was chemically synthesized was used and a calcium channel inhibiting action by VY was confirmed.
Influence of VY on Ang II receptor AT1 existing on the surface of VSMC was investigated. That is, VSMC was pre-incubated in a serum-free medium for 24 hours on a 96-well plate and incubation was conducted for 48 hours after 1 μM of Ang II was added, 10 μM of saralasin which is an Ang II antagonist was added, each 1 μM of Ang II and saralasin were added or each 1 μM of Ang II and saralasin and 1 mM of VY were added. Then 10 μM of WST-8 was added thereto and amount of water-soluble formazan formed by color reaction for 3 hours at 37° C. in a CO2 incubator was determined by absorbance at 450 nm whereby cell growth was measured from the synthesized amount of DNA. The result which was made into a graph is FIG. 17 (effect of VY and saralasin (Ang II antagonist) on Ang II stimulation).

[2] = test system: normal human aortic vessel smooth muscle cells (VSMC); assay: VY toxicity test on VSMC (WST-8); details: 0 mM or 1 mM VY; 48 hours; serum-free; WST-8 absorbance at 450 nm; FIG. 13
Experimental: as §1
In order to check the toxicity of VY, VSMC was pre-incubated for 24 hours on a serum-free medium on a 96-well plate, 0 mM or 1 mM of VY was added thereto and incubation was conducted for 48 hours. To this was added a solution containing 10 μM of WST-8 (2-(2-methoxy-4-nitrophenyl)-3-(4-nitrophenyl)-5-(2,4-disulfophenyl)-2H-tetrazolium (Cell Counting Kit-8; manufactured by Dojin Kagaku CO.)), color reaction was conducted in a CO2 incubator at 37° C. for 3 hours and the amount of the resulting water-soluble formazan was determined by absorbance at 450 nm where cell growth was measured from the synthesized amount of DNA. The result which was made into a graph is FIG. 13 (VY toxicity test). As a result, it was noted that there was no difference between their cell growths and that VY is non-toxic.

[3] = test system: normal human aortic vessel smooth muscle cells (VSMC); assay: Influence on VSMC growth by Ang II stimulation (WST-8); details: 48 hours
Experimental: as §1
When Ang II (angiotensin II) is added to an incubated liquid of VSMC, cell growth thereof is promoted. It has been known to be due to the fact that Ang II is bonded to an AT1 receptor existing on the surface of VSMC, the bonding signal flows in the cells and, as a result, calcium channel opens and calcium ion flows into the cells. Such a mechanism was utilized to conduct the following experiment.
VSMC was pre-incubated for 24 hours on a serum-free medium on a 96-well plate and three kinds of samples—a control to which no additive was added, a sample to which only Ang II was added in a concentration of 1 μM (Ang II (+)) and a sample to which Ang II and VY were added in concentrations of 1 μM and 1 mM, respectively (Ang II(+)VY(+))—were incubated for 48 hours. Then 10 μM of WST-8 was added thereto and amount of water-soluble formazan resulted by color reaction at 37° C. for 3 hours in a CO2 incubator was measured from absorbance at 450 nm whereupon cell growth was measured form the synthesized amount of DNA. The result which was made into a graph is FIG. 14 (effect of VY on Ang II stimulation).
Further, cell growth when concentration of VY added by the same method was made 0 μM, 1 μM, 10 μM, 100 μM and 1 mM was measured. That is, VSMC was pre-incubated on a serum-free medium for 24 hours on a 96-well plate and six kinds of samples—a control where nothing was added and five samples where Ang II was added in a concentration of 1 μM and VY was further added in concentrations 0 μM, 1 μM, 10 μM, 100 μM and 1 mM—were incubated for 48 hours. Then 10 μM WST-8 was added thereto and amount of water-soluble formazan produced by color reaction at 37° C. for 3 hours in a CO2 incubator was determined from absorbance at 450 nm whereupon cell growth was measured from the synthesized amount of DNA. The result which was made into a graph is FIG. 15 (dependency of VY concentration to VSMC growth by Ang II stimulation).
VSMC was pre-incubated in a serum-free-medium for 24 hours on a 96-well plate, then 1 μM of captopril which is an ACE inhibitor was added thereto and incubation was conducted for 48 hours. Then 10 μM WST-8 was added thereto and amount of water-soluble formazan produced by color reaction for 3 hours was determined from absorbance at 450 nm whereupon cell growth was measured from synthesized amount of DNA. The result which was made into a graph is FIG. 16 (influence of ACE inhibitor on Ang II stimulation).

[4] = test system: normal human aortic vessel smooth muscle cells (VSMC); assay: Influence of VY on VSMC growth in the presence of 5% FBS (Trypan Blue living cell count); details: VY 0, 50 and 100 μM, 5 v/v % FBS medium, 5 days at 37° C., FIG. 12
Experimental: as §1
VSMC (1×10^5 cell/ml) was pre-incubated for 24 hours in a serum-free medium and transferred to a medium containing 5 v/v % of FBS (fetal bovine serum), 1 w/v % of hEGF (human epidermal growth factor) and 1 w/v % of hEGF-β, then VY was added thereto so as to make its concentrations 0, 50 and 100 μM and incubation of the resulting mixtures was conducted for 5 days at 37° C. in a CO2 incubator. This was stained with Trypan Blue and living cells were counted by a blood corpuscle counter. The result which is made into a graph is FIG. 12 (effect of addition of VY in the presence of 5% FBS).

[5] = test system: normal human aortic vessel smooth muscle cells (VSMC); assay: Influence on calcium channel agonist (Bay K 8644) stimulation of VSMC growth (WST-8); details: 48 hours
Experimental: Inflow of calcium ion which is downstream of Ang II stimulation showing a cell growth promoting action was investigated. […] Then 10 μM of WST-8 was added thereto and amount of water-soluble formazan produced by color reaction for 3 hours at 37° C. in a CO2 incubator was determined by absorbance at 450 nm whereupon cell growth was measured from the synthesized amount of DNA.
Then 10 μM of WST-8 was added thereto and amount of water-soluble formazan produced by color reaction for 3 hours at 37° C. in a CO2 incubator was determined by absorbance at 450 nm whereby cell growth was measured from synthesized amount of DNA.

CNCC(=O)N[C@@H](CCCN=C(N)N)C(=O)N[C@H](C(=O)N[C@@H](Cc1ccc(O)cc1)C(=O)N[C@H](C(=O)N[C@@H](Cc1cnc[nH]1)C(=O)N1CCC[C@H]1C(=O)N[C@@H](C)C(=O)O)C(C)C)C(C)C [saralasin]
cell growth ([1]; each 1 μM of Ang II and saralasin): the growth promotion effect was weak as compared with the case of sole use of saralasin | cell growth ([1]; saralasin alone, 10 μM): cell growth was promoted although that was not so significant as in the case of addition of Ang II

CC(C)[C@H](N)C(=O)N[C@@H](Cc1ccc(O)cc1)C(=O)O [VY, valyl-tyrosine] (H-Val-Tyr-OH)
toxicity (cell growth) [2]: non-toxic | cell growth under Ang II stimulation ([3]; Ang II 1 μM and VY 1 mM, FIG. 14): cell growth was not promoted | dependency of VY concentration to VSMC growth by Ang II stimulation ([3]; Ang II 1 μM, VY 0 μM, 1 μM, 10 μM, 100 μM and 1 mM, FIG. 15): suppressive effect to the growth of VSMC by Ang II stimulation in a concentration-depending manner | cell growth ([1]; each 1 μM of Ang II and saralasin and 1 mM of VY): no growth promoting effect was noted | cell growth (living cells counted) [4]: cell growth was suppressed in proportion to the added VY concentration | cell growth under Bay K 8644 stimulation ([5]; 1 μM of Bay K 8644 and 1 mM of VY, FIG. 18): suppressed cell growth promoting activity as same as in the case of addition of verapamil | dependency on concentration of VY to Bay K 8644 stimulation (cell growth) ([5]; 1 μM of Bay K 8644 with 0, 10 μM, 100 μM or 1 mM of VY, FIG. 19): suppressive effect to VSMC growth by Bay K 8644 stimulation in a concentration-dependent manner

angiotensin II (DRVYIHPF; Angiotensin-2; UniProt P01019 25-32, looked up) [Ang II, angiotensin II, promotes VSMC growth via AT1 receptor, reference compound]
cell growth ([3]; Ang II alone 1 μM, FIG. 14): growth was strongly promoted

COc1ccc(CCN(C)CCCC(C#N)(c2ccc(OC)c(OC)c2)C(C)C)cc1OC (stereo not shown) [verapamil, reference compound]
cell growth under Bay K 8644 stimulation ([5]; each 1 μM of Bay K 8644 and verapamil, FIG. 18): suppressed the cell growth promoting activity

C[C@H](CS)C(=O)N1CCC[C@H]1C(=O)O [captopril, reference compound]
influence of ACE inhibitor on Ang II stimulation (cell growth) ([3]; captopril 1 μM, FIG. 16): did not show a suppressive action to Ang II stimulation

COC(=O)C1=C(C)NC(C)=C([N+](=O)[O-])C1c1ccccc1C(F)(F)F (stereo not shown) [Bay K 8644, reference compound]
cell growth ([5]; Bay K 8644 alone 1 μM, FIG. 18): cell growth was promoted
